Article PMC4199632, “Exploring the Anti-Cancer Activity of Novel Thiosemicarbazones Generated through the Combination of Retro-Fragments: Dissection of Critical Structure-Activity Relationships” (PLoS ONE, 2014)

Columns and labels:
[1] = Ascorbate oxidation assay (iron complexes); format: biochemical; conditions: iron complex, IBE 3; FeIII 10 µM, ascorbate 100 µM
Method: The ability of the iron complexes of the novel ligands to mediate the oxidation of the physiological substrate, ascorbate, was examined using established methods, [18], [22], [52], [53]. Ascorbic acid (100 µM) was prepared immediately prior to each experiment and was incubated in the presence of Fe^III (10 µM; as FeCl3), the chelator (1–60 µM) and a 50-fold molar excess of citrate (500 µM). The absorbance at 265 nm was measured after 10 and 40 min and the difference in absorbance at these time points was calculated. The results of these experiments were expressed as iron-binding equivalents (IBE) due to the different denticity of the chelators examined. The chelators, Dp44mT, DFO and ethylenediaminetetraacetic acid (EDTA) were used as controls as the ability of their iron complexes to oxidize ascorbate has been extensively characterized, [15], [52], [53].
The ability of the iron complexes of the novel TSCs to catalyze the oxidation of the physiological substrate, ascorbate, was important to assess as redox cycling may play a critical role in their anti-proliferative activity, [15], [18], [52], [53]. Thus, the oxidation of ascorbate mediated by the iron complexes of series 1–6 were examined in comparison to the iron complexes of the control compounds, DFO, EDTA and Dp44mT, as the ability of the latter to oxidize ascorbate is well characterized, [15], [52], [53], [68]. The results were expressed as a percentage of the control (no chelator) at iron-binding equivalents (IBEs) of 0.1 (excess “free” iron), 1 (iron-chelator complexes with a fully filled coordination sphere), or 3 (excess free chelator), due to the different denticity of the chelators examined (Fig. 10).
Figure 10 Effect of the iron complexes of (A) series 1, (B) series 2, (C) series 3, (D) series 4, (E) series 5 and (F) series 6 chelators, relative to DFO, Dp44mT and EDTA, on ascorbate oxidation. Chelators at iron-binding equivalent (IBE) ratios of 0.1, 1, and 3 were incubated in the presence of Fe^III (10 µM) and ascorbate (100 µM). The UV-Vis absorbance at 265 nm was recorded after 10 and 40 min, and the difference between the time points was calculated. Results are mean ±SD (3 experiments).

[2] = system: normal human dermal fibroblast (NHDF) cells; assay: Proliferation assay (MTS, 96 h), normal mortal cells; format: cell-based; conditions: 96 h incubation, mean ±SD (3 experiments)
Method: (§1) The human cancer cell types (neuroepithelioma (SK-N-MC), colon cancer (HCT116 with wild-type p53 (p53^+/+)), Burkitt's lymphoma (Raji) and cervical carcinoma (HeLa)) cells and normal human dermal fibroblasts (NHDF) were obtained from the American Type Culture Collection (ATCC, Manassas, VA, USA). HCT116 null p53 (p53^−/−) cells were obtained from the Maria Sklodowska-Curie Memorial Cancer Center and Institute of Oncology, Poland.
(§2) The SK-N-MC cells were cultured in minimum essential medium (MEM; Life Technologies, Grand Island, New York, USA) containing 10% (v/v) fetal bovine serum (FBS; Life Technologies), 1 mM sodium pyruvate (Life Technologies), 1% (v/v) non-essential amino acids (Life Technologies), 2 mM L-glutamine (Life Technologies), 100 U/mL penicillin (Life Technologies), 100 µg/mL streptomycin (Life Technologies) and 0.28 µg/mL fungizone (Bristol Myers Squibb Pharmaceuticals, Montreal, Canada). The HCT116 and NHDF cells were grown in Dulbecco's modified Eagle's medium (DMEM; Sigma-Aldrich) supplemented with 12% (v/v) heat-inactivated FBS (HCT116; Life Technologies) or 15% (v/v) FBS (NHDF; Life Technologies), 100 µg/mL of gentamicin (Polfa Warszawa S.A., Warsaw, Poland), 100 µg/mL of streptomycin (Polfa) and 100 U/mL of penicillin (Polfa). The Raji and HeLa cells were cultured in Roswell Park Memorial Institute medium (RPMI-1640; Sigma-Aldrich) with the addition of 10% (v/v) heat-inactivated FBS (Life Technologies) and the supplements described for SK-N-MC cells above. All cell lines were cultured under standard conditions at 37°C in a humidified atmosphere at 5% CO2 and were subcultured every 3–4 days as required.
(§3) The cells were seeded in 96-well plates (SK-N-MC: 1.5×10^4 cells/well; HeLa: 5.0×10^3 cells/well; Raji: 3.0×10^3 cells/well; HCT116: 3.5×10^3 cells/well; NHDF: 3.0×10^3 cells/well) 24 h prior to the addition of the novel compounds. The assays were performed using a 72 h (SK-N-MC, Raji, HeLa) or 96 h (HCT 116, NHDF) incubation period with the agents at 37°C. […] Additionally, DFO and Dp44mT were included as positive controls in all experiments as their activity is well characterized, [42], [50].
(§4) Chelator stock solutions were prepared in DMSO and diluted in media so that the final [DMSO] <0.05%. The results were expressed as a percentage of the control and the resulting IC50 values were calculated using GraphPad Prism 5 (GraphPad Software, Inc., La Jolla, CA, USA). The IC50 was defined as the concentration necessary to reduce the absorbance to 50% of the untreated control. Each individual compound was tested in triplicate in a single experiment, with each experiment being repeated three times. After incubation of HCT 116 and NHDF cells with the tested compounds, 20 µL of the CellTiter 96 Aqueous One Solution - MTS (Promega, Madison, WI, USA) solution was added to each well (with 100 µL of DMEM without phenol red) and incubated for 1 h/37°C. The optical density of the samples was analyzed at 490 nm.

[3] = system: Raji Burkitt's lymphoma cells; assay: Proliferation assay (MTT, 72 h); format: cell-based; conditions: Homo sapiens, 72 h incubation, mean ±SD (3 experiments)
Method: as §1, §2, §3, §4
(§5) MTT (3-[4,5-dimethylthiazol-2-yl]-2,5-diphenyltetrazolium bromide) was used to evaluate the anti-proliferative effects of the chelators in SK-N-MC and Raji cells. Following incubation with the investigated compounds, 10 µL of MTT (5 mg/mL in PBS; Sigma-Aldrich) was added to each well. After a 2 h (SK-N-MC) or 4 h (Raji) incubation, the plates were centrifuged, and the cells were lysed with 100 µL of 10% SDS-50% isobutanol in 0.01 M HCl (SK-N-MC) or DMSO (Raji). The absorbance was measured at 570 nm. The anti-proliferative effects of these novel agents on HeLa cells were estimated using crystal violet staining (0.5% crystal violet solution for 10 min). Finally, the wells were rinsed with water and the cells were lysed with 2% SDS. The optical density of the samples was analyzed at 595 nm.

[4] = system: SK-N-MC neuroepithelioma cells; assay: Proliferation assay (MTT, 72 h); format: cell-based; conditions: Homo sapiens, 72 h incubation, mean ±SD (3 experiments)
Method: as §1, §2, §3, §4, §5

[5] = system: HeLa cervical carcinoma cells; assay: Proliferation assay (crystal violet, 72 h); format: cell-based; conditions: Homo sapiens, 72 h incubation, mean ±SD (3 experiments)
Method: as §1, §2, §3, §4, §5

[6] = system: HCT116 p53+/+, HCT116 p53−/−, Raji, HeLa, SK-N-MC and NHDF cells; assay: Proliferation assay, ranges stated over several cell-types; format: cell-based, human; conditions: for IC50: Homo sapiens, HCT-116, range over HCT116 p53+/+ and p53−/− cells and over the compounds named, read-out: IC50 range in HCT116 cells; for Therapeutic index, NHDF relative to HCT116 cells: range over HCT116 p53+/+ and p53−/− and over the compounds named
Method: as §1, §2, §3, §4, §5

[7] = system: HCT116 p53−/− colon cancer cells; assay: Proliferation assay (MTS, 96 h); format: cell-based, human; conditions: for IC50: 96 h incubation, MTS, mean ±SD (3 experiments); for Therapeutic index NHDF vs. HCT116 p53−/−: NHDF cell IC50 divided by HCT116 p53−/− IC50
Method: as §1, §2, §3, §4

[8] = system: HCT116 p53+/+ colon cancer cells; assay: Proliferation assay (MTS, 96 h); format: cell-based, human; conditions: for IC50: Homo sapiens, HCT-116, 96 h incubation, MTS, mean ±SD (3 experiments); for Therapeutic index NHDF vs. HCT116 p53+/+: NHDF cell IC50 divided by HCT116 p53+/+ IC50
Method: as §1, §2, §3, §4

[9] = system: SK-N-MC cells; assay: Inhibition of cellular 59Fe uptake from 59Fe2-Tf; format: cell-based, human; conditions: chelator 25 µM, 59Fe2-Tf 0.75 µM, 3 h/37°C
Method: The iron transport protein, Tf (Sigma-Aldrich), was labeled with ^59Fe (PerkinElmer Life and Analytical Sciences, Boston, MA) to form ^59Fe2-Tf using standard methods, [7]. Unbound ^59Fe was removed by passage through a Sephadex G25 column and was followed by exhaustive dialysis, [7].
The ability of the chelators to prevent the cellular uptake of ^59Fe from ^59Fe2-Tf was examined using standard methods, [14], [17], [18], [50]. A monolayer of SK-N-MC cells was incubated with medium containing ^59Fe2-Tf (0.75 µM) and the chelator (25 µM) for 3 h at 37°C. The medium was then removed and the cells were washed four times with ice-cold PBS. The cells were then incubated for 30 min at 4°C with the general protease, Pronase (1 mg/mL; Sigma-Aldrich), to remove membrane-bound ^59Fe. The cells were removed using a plastic spatula and centrifuged at 14,000 rpm/1 min to separate internalized from membrane-bound ^59Fe. The cell pellet was resuspended in 1 mL of PBS and the internalized ^59Fe was measured on a γ-scintillation counter. Internalized ^59Fe uptake was calculated as a percentage of the control (medium alone). Again, the novel ligands were compared to DFO and Dp44mT as their ability to inhibit cellular ^59Fe uptake has been extensively characterized using SK-N-MC cells, [14], [17], [18], [50].
Figure 8 Effect of (A) series 1, (B) series 2, (C) series 3, (D) series 4, (E) series 5 and (F) series 6 chelators, relative to the controls DFO and Dp44mT, on ^59Fe uptake from ^59Fe-transferrin by SK-N-MC cells. Cells were incubated for 3 h/37°C with ^59Fe-transferrin (0.75 µM) in the presence or absence of the chelators (25 µM). At the end of this incubation, cells were washed 4 times with ice-cold PBS. Internalization of ^59Fe was assessed by incubation for 30 min/4°C with the protease, Pronase (1 mg/mL). Cellular ^59Fe was then assessed using a γ-scintillation counter. Results are mean ±SD (3 experiments).

SMILES | IC50 [3] | IC50 [4] | IC50 [5] | IC50 [6] | IC50 ([7]; Homo sapiens, HCT-116, 96 h) | IC50 [8] | IC50 [7] | Ascorbate oxidation (% of the control) [1] | IC50 ([2]; Homo sapiens, NHDF, 96 h) | Therapeutic index, NHDF relative to HCT116 cells [6] | Therapeutic index NHDF vs. HCT116 p53−/− [7] | Therapeutic index NHDF vs. HCT116 p53+/+ [8] | IC50 [2] | Decrease in anti-proliferative efficacy, HCT116 p53+/+ vs HCT116 p53−/− ([6]; comparison of IC50 in HCT116 p53+/+ and p53−/− cells) | Internalized 59Fe uptake from 59Fe2-Tf (% of the control) [9]
Oc1cccc2ccc(/C=N/NC(=S)N3CCN(c4cnccn4)CC3)nc12 [3e] | 40 ± 20 nM | > 6250 nM | 2390 ± 20 nM | – | 5000 nM | 50 ± 30 nM | 5010 ± 2550 nM | – | 12100 ± 3600 nM | – | – | – | – | 100 fold | –
CN(C(=S)N/N=C/c1ccc2cccc(O)c2n1)C1CCCCC1 [3f] | 10 nM | > 6250 nM | 2570 ± 460 nM | – | 4350 ± 1350 nM | 3110 ± 1920 nM | – | – | 5360 ± 1990 nM | – | – | – | – | – | 3.6–11.5%
S=C(N/N=C/c1cnc2ccccc2n1)N1CCOCC1 [5c] | 240 ± 40 nM | 2870 ± 1250 nM | 860 ± 90 nM | – | 5840 ± 1650 nM | 2030 ± 1240 nM | – | – | 11600 ± 1800 nM | – | – | – | – | – | 3.6–11.5%
Oc1ccccc1/C=N/NC(=S)N1CCOCC1 [6c] | 3790 ± 80 nM | > 6250 nM | 18200 ± 1300 nM | – | 16400 ± 3100 nM | 15400 ± 1700 nM | – | – | > 25000 nM | – | – | – | – | – | 3.6–11.5%

The next compounds have a lower IC50 [3] than those just listed; values first:

IC50 [3] | IC50 [4] | IC50 [5] | IC50 [6] | IC50 ([7]; Homo sapiens, HCT-116, 96 h) | IC50 [8] | IC50 [7] | SMILES | Ascorbate oxidation (% of the control) [1] | IC50 ([2]; Homo sapiens, NHDF, 96 h) | Therapeutic index, NHDF relative to HCT116 cells [6] | Therapeutic index NHDF vs. HCT116 p53−/− [7] | Therapeutic index NHDF vs. HCT116 p53+/+ [8] | IC50 [2] | Decrease in anti-proliferative efficacy, HCT116 p53+/+ vs HCT116 p53−/− ([6]; comparison of IC50 in HCT116 p53+/+ and p53−/− cells) | Internalized 59Fe uptake from 59Fe2-Tf (% of the control) [9]
0.3 ± 0.03 nM | 50 ± 10 nM | 570 ± 160 nM | 0.8 to 90 nM | 0.8 ± 0.1 nM | 0.8 ± 0.1 nM | – | S=C(NN=C(c1ccccn1)c1ccccn1)N1CCN(c2ccccc2)CC1 [1b] | 200–265% | 1.7 ± 0.7 nM | 2 | 2 | 2 | – | – | –
1.3 ± 0.1 nM | 20 ± 10 nM | 30 ± 20 nM | 2 to 17 nM | 9 ± 1 nM | 2 nM | – | S=C(NN=C(c1ccccn1)c1ccccn1)N1CCN(c2ccccn2)CC1 [1d, Z-N′-(di(pyridin-2-yl)methylene)-4-(pyridin-2-yl)piperazine-1-carbothiohydrazide] | 200–265% | 160 to 10600 nM | 18–2650 | 18 | 80 | 160 ± 40 nM | – | –
